Experimental data published in ChEMBL document CHEMBL1777722, “Design and synthesis of 5,6-fused heterocyclic amides as Raf kinase inhibitors” (Bioorg Med Chem Lett, 2011).
Calls of active or inactive are those of the source. The rule behind the calls is not given here.

Tests used:
[1] = target: T1, Serine/threonine-protein kinase B-raf (Homo sapiens, UniProt P15056, V600E); assay: Inhibition of B-Raf V599E mutant assessed as phosphorylation of MEK1/2 by ELISA
[2] = target: T1, Serine/threonine-protein kinase B-raf; assay: Inhibition of BRAF V600E mutant-mediated ERK phosphorylation in human SKMEL-28 cells by immunoblotting method; format: cell-based, MEL-28
[3] = target: RAF proto-oncogene serine/threonine-protein kinase (Homo sapiens, UniProt P04049); assay: Inhibition of c-Raf assessed as phosphorylation of MEK1/2 by ELISA
[4] = tested on: Mus musculus; assay: Volume of distribution in mouse at 20 mg/kg, po administered as single dose; format: ADME, organism-based; set-up: dose 20 mg/kg, route oral; details: in vivo
[5] = Clearance in mouse at 20 mg/kg, po administered as single dose; format: ADME, organism-based; set-up: dose 20 mg/kg, route oral; details: in vivo
[6] = Half life in mouse at 20 mg/kg, po administered as single dose; format: ADME, organism-based; set-up: dose 20 mg/kg, route oral; details: in vivo
[7] = Oral bioavailability in mouse at 20 mg/kg administered as single dose; format: ADME, organism-based; details: in vivo
[8] = target: Proto-oncogene tyrosine-protein kinase receptor Ret (Homo sapiens) (UniProt P07949); assay: Inhibition of Ret
[9] = target: Vascular endothelial growth factor receptor 2 (Homo sapiens) (UniProt P35968); assay: Inhibition of KDR
[10] = target: Macrophage colony-stimulating factor 1 receptor (Homo sapiens) (UniProt P07333); assay: Inhibition of CSFR1
[11] = target: Receptor-type tyrosine-protein kinase FLT3 (Homo sapiens) (UniProt P36888); assay: Inhibition of Flt3
[12] = target: Tyrosine-protein kinase ABL1 (Homo sapiens) (UniProt P00519); assay: Inhibition of cABL
Chain of Tyrosine-protein kinase ABL1 (Homo sapiens) (P00519 whole entry): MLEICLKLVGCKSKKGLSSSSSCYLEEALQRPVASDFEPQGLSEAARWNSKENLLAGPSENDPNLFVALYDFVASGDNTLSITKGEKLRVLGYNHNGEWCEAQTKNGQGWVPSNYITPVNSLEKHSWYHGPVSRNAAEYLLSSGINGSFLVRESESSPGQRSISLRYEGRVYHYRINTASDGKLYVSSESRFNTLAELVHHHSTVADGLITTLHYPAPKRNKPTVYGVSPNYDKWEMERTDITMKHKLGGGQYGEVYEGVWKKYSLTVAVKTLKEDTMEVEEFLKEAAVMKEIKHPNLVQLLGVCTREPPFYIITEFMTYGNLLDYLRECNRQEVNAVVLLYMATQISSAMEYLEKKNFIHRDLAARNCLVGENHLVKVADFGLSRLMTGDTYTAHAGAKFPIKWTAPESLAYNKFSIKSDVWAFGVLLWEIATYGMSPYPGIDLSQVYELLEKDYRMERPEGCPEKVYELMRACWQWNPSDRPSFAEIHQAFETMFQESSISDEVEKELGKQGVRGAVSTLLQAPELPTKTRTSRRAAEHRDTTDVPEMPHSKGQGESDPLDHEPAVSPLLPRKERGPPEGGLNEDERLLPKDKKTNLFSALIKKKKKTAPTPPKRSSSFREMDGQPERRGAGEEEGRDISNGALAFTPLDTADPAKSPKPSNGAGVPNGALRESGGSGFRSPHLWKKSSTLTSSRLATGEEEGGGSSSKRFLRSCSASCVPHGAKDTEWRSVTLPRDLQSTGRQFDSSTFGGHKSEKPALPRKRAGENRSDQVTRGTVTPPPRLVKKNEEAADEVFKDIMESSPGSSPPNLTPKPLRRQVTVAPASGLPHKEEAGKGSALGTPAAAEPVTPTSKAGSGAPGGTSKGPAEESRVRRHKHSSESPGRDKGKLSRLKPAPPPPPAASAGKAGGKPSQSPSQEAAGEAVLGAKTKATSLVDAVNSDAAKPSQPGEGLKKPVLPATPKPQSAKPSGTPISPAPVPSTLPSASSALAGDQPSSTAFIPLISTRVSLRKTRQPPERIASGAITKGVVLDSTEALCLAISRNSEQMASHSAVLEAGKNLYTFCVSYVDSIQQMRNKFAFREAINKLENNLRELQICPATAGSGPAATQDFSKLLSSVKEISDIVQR

Chain of RAF proto-oncogene serine/threonine-protein kinase (P04049 whole entry): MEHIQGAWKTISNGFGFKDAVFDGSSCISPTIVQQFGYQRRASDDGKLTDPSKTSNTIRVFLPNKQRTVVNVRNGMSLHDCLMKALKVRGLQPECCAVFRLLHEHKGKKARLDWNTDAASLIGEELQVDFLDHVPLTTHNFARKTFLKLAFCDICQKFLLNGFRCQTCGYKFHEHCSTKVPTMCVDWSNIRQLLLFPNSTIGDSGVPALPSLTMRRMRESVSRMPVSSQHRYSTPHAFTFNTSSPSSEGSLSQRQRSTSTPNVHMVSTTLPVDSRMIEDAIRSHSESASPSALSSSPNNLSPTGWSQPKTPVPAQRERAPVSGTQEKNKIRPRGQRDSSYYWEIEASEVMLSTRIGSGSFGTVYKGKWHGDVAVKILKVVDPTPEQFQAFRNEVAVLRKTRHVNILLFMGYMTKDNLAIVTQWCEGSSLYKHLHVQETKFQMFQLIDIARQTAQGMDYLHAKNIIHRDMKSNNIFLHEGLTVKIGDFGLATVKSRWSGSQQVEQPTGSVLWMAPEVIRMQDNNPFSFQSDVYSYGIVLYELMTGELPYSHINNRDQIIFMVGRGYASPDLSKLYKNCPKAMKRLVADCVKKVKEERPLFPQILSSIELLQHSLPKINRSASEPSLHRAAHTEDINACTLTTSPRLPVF
T1 sequence (P15056 2-766 V600E limits assumed): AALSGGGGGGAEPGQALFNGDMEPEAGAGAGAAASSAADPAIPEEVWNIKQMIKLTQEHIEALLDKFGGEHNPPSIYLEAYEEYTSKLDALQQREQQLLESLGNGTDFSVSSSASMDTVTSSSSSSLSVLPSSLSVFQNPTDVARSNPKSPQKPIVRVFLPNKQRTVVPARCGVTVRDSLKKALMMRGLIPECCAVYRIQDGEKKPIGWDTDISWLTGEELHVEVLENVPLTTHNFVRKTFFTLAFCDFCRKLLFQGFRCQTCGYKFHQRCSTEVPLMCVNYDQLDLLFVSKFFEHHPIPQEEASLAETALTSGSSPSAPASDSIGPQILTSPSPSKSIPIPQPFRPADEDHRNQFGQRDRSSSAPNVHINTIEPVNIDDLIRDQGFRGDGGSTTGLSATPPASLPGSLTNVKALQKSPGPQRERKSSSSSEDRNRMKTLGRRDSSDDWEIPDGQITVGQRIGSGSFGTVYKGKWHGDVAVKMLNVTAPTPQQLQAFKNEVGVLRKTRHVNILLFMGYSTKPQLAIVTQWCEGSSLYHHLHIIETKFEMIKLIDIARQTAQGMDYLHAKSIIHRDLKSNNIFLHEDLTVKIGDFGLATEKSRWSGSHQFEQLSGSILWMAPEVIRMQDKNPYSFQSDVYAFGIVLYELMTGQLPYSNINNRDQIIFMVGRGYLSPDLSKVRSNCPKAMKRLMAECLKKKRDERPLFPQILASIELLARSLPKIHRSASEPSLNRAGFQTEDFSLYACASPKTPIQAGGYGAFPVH
Chain of Receptor-type tyrosine-protein kinase FLT3 (Homo sapiens) (P36888 whole entry): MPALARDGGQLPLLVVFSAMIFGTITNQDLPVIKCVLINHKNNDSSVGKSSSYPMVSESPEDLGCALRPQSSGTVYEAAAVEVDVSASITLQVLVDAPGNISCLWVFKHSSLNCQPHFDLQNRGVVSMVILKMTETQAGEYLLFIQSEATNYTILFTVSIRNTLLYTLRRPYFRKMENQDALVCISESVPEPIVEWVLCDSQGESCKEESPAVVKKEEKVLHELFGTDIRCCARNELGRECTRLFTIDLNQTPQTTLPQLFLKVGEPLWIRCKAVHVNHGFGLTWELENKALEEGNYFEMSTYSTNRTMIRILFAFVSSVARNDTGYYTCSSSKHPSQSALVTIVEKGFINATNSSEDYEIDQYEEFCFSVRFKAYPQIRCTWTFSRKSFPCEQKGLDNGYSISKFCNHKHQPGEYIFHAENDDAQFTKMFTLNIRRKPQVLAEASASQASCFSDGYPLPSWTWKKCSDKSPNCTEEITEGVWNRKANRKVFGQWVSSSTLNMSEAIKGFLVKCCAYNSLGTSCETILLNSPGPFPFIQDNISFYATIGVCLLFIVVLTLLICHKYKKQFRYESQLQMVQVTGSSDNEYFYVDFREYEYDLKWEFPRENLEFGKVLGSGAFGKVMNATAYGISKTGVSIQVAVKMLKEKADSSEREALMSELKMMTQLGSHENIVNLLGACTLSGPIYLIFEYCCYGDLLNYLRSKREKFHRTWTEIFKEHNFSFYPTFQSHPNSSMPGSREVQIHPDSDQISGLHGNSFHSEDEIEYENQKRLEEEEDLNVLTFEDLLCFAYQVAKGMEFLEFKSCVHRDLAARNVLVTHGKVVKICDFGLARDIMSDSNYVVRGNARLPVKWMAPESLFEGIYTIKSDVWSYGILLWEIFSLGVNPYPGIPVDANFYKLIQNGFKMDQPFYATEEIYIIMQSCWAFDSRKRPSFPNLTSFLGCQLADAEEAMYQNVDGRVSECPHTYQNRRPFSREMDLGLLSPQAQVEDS
Chain of Vascular endothelial growth factor receptor 2 (Homo sapiens) (P35968 whole entry): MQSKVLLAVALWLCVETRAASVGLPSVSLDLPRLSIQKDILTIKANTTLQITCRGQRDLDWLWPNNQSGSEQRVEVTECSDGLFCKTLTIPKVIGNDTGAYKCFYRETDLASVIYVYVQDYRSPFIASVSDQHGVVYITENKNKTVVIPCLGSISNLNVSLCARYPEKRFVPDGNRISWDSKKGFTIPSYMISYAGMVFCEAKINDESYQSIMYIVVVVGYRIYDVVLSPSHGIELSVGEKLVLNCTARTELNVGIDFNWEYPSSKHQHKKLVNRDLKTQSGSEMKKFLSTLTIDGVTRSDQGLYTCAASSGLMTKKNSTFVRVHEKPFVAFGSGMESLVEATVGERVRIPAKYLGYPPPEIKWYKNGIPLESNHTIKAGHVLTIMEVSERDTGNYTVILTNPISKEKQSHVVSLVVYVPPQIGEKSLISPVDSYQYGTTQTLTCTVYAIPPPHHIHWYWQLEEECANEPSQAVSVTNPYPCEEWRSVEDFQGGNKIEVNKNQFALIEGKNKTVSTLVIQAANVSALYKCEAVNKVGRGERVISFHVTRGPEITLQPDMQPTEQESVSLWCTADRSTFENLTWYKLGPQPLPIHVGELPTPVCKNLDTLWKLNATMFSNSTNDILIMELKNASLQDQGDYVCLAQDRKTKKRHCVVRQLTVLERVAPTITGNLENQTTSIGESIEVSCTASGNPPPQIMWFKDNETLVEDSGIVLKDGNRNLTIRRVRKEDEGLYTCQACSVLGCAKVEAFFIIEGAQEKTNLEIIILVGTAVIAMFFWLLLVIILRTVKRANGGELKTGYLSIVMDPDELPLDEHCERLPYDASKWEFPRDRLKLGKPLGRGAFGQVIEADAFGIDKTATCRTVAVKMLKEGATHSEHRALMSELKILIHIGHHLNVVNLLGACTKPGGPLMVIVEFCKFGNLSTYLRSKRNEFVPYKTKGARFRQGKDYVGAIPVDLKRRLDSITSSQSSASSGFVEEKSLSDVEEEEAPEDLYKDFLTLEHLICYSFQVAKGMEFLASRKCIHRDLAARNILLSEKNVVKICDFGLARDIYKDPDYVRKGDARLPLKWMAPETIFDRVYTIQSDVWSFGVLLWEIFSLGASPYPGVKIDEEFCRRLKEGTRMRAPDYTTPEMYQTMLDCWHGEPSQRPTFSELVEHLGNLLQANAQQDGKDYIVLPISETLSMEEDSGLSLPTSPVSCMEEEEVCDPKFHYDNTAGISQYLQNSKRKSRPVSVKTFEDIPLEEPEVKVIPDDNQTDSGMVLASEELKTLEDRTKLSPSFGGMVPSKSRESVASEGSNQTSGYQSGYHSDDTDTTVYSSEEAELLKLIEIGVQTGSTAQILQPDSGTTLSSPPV

Compound | IC50 [1] [nM] | EC50 [2] [nM] | IC50 [3] [nM] | also measured
CNC(=O)c1cc(Oc2ccc3oc(Nc4ccc(Br)cc4)nc3c2)ccn1 | 25 | 10000 | 3 | –
CNC(=O)c1cc(Oc2ccc3sc(Nc4ccc(C)cc4)nc3c2)ccn1 | 26 | – | 7 | Vd [4]: 1.042 L/kg; CL/F [5]: 14.1 mL/min/kg; half-life [6]: 80 min; bioavailability [7]: 90%
CNC(=O)c1cc(Oc2ccc3oc(Nc4cccc(C(F)(F)F)c4)nc3c2)ccn1 | 110 | – | 27 | –
CNC(=O)c1cc(Oc2ccc3sc(Nc4ccc(Cl)cc4)nc3c2)ccn1 | 15 | – | 4 | –
CNC(=O)c1cc(Oc2ccc3sc(Nc4ccc(Br)cc4)nc3c2)ccn1 | 7 | > 10000 | 2 | –
CCc1ccc(Nc2nc3cc(Oc4ccnc(C(=O)NC)c4)ccc3o2)cc1 | 5 | 7000 | 1 | Vd [4]: 0.082 L/kg; CL/F [5]: 0.93 mL/min/kg; half-life [6]: 32 min; bioavailability [7]: 33%
CCCCc1ccc(Nc2nc3cc(Oc4ccnc(C(=O)NC)c4)ccc3o2)cc1 | 11 | – | 2 | –
O=C(NCCN1CCOCC1)c1cc(Oc2ccc3sc(Nc4ccc(Br)cc4)nc3c2)ccn1 | 240 | > 10000 | 41 | –
CNC(=O)c1cc(Oc2ccc3oc(Nc4ccc(N(C)C)cc4)nc3c2)ccn1 | 130 | – | 12 | –
CC(C)c1cccc(Nc2nc3cc(Oc4ccnc(C(=O)NCCN5CCOCC5)c4)ccc3o2)c1 | 200 | – | 140 | –
CNC(=O)c1cc(Oc2ccc3oc(Nc4cccc(C(C)(C)C)c4)nc3c2)ccn1 | 6 | 1000 | 1 | –
CNC(=O)c1cc(Oc2ccc3sc(Nc4ccc(C(C)C)cc4)nc3c2)ccn1 | 19 | 3200 | 3 | –
CC(C)(C)c1cccc(Nc2nc3cc(Oc4ccnc(C(N)=O)c4)ccc3s2)c1 | 2 | 2900 | 1 | –
CCN1CCN(c2ccc(Nc3nc4cc(Oc5ccnc(C(=O)NC)c5)ccc4o3)cc2)CC1 | 17000 | – | 7300 | –
CNC(=O)c1cc(Oc2ccc3oc(Nc4ccc(C(C)C)cc4)nc3c2)ccn1 | 6 | – | 1 | –
CNC(=O)c1cc(Oc2ccc3oc(Nc4ccc(Cl)cc4)nc3c2)ccn1 | 21 | – | 19 | –
CNC(=O)c1cc(Oc2ccc3sc(Nc4ccc(OC(F)(F)F)cc4)nc3c2)ccn1 | 18 | – | 4 | –
CNC(=O)c1cc(Oc2ccc3oc(Nc4ccccc4Cl)nc3c2)ccn1 | 260 | – | 120 | –
CC(C)c1cccc(Nc2nc3cc(Oc4ccnc(C(N)=O)c4)ccc3o2)c1 | 4 | 3700 | 4 | –
CNC(=O)c1cc(Oc2ccc3oc(Nc4ccc(OC(F)(F)F)cc4)nc3c2)ccn1 | 12 | – | 2 | –
CNC(=O)c1cc(Oc2ccc3oc(Nc4ccc(Oc5ccccc5)cc4)nc3c2)ccn1 | 680 | – | 53 | –
CCCCc1ccc(Nc2nc3cc(Oc4ccnc(C(=O)NC)c4)ccc3s2)cc1 | 65 | – | 9 | –
CNC(=O)c1cc(Oc2ccc3oc(Nc4cccc(C(C)C)c4)nc3c2)ccn1 | – | 1000 | 3 | inhibition [8]: Active; inhibition [9]: Active; inhibition [10]: Active; inhibition [11]: Active; inhibition [12]: Active
CCc1ccccc1Nc1nc2cc(Oc3ccnc(C(=O)NC)c3)ccc2o1 | 340 | – | 110 | –
CNC(=O)c1cc(Oc2ccc3sc(Nc4cccc(C(C)(C)C)c4)nc3c2)ccn1 | 4 | 2100 | 1 | inhibition [8]: Active; inhibition [9]: Active; inhibition [10]: Active; inhibition [11]: Active; inhibition [12]: Active
CNC(=O)c1cc(Oc2ccc3oc(Nc4ccccc4F)nc3c2)ccn1 | 580 | – | 200 | –
CNC(=O)c1cc(Oc2ccc3c(c2)nc(Nc2cccc(C(C)(C)C)c2)n3C)ccn1 | 120 | 280 | – | –
